Patent publication US20180008629A1, “Compositions and Methods for Treating NLRP3 Inflammasome-Related Diseases and Disorders” (priority 2015, published 2018)

Experiments:
[1] = molecular target: T1, NLRC4 (Mus musculus, UniProt Q3UP24); format: cell-based; details: BMDMs infected with Salmonella typhimurium, 0, 1, 5, or 10 mM BHB
T1 construct: endogenous in cells; host or cells: mouse BMDMs infected with Salmonella typhimurium (SL1344)

[2] = molecular target: NLRP3^L351P (Mus musculus, UniProt Q8R4B8, L351P); format: cell-based; design: endogenous in cells; Nlrp3 L351P Cre+ mice after tamoxifen in vivo (A14); details: constitutively active NLRP3 inflammasome, LPS
[3] = molecular target: T2, ASC (Mus musculus, UniProt Q9EPB4); experiment: ASC oligomerization and ASC speck formation in BMDMs; format: cell-based
T2 construct: endogenous in cells; host or cells: mouse BMDMs primed with LPS and stimulated with ATP
T2 sequence (Q9EPB4 1-193): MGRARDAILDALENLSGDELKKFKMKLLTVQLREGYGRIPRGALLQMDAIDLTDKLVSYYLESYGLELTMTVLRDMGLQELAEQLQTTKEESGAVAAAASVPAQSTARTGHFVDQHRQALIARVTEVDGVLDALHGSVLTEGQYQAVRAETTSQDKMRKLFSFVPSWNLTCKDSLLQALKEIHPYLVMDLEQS
Method: The ASC oligomerization was performed using previously described methods (Yu et al., 2006, Cell. Death Differ. 13:236-249). BMDM were plated on chamber slides and allowed to attach overnight. The following day cells were primed with LPS and treated with ATP±BHB (10 mM) as described in the materials and methods. Cells were fixed with 4% paraformaldehyde followed by ASC (Enzo Lifesciences) and DAPI staining. ASC specks were quantified using ImageJ software. At least 5 distinct fields were analyzed and a minimum of 550 cells from each treatment condition were quantified. Data are shown as mean±SD and are representative of two independent experiments. Statistical differences were calculated by student's t-test.

[4] = test system: human monocytes; experiment: Cytokine secretion from LPS stimulated human monocytes (ELISA); format: cell-based; details: LPS (1 μg/mL) 4 h, increasing concentrations of BHB
Method: The cryopreserved peripheral blood monocuclear cells were used to sort CD14+ monocytes using isolation kit from Miltenyi (130-091-153). A total of 6 healthy subjects, ([…], […], person, person, […] and […]) were used for monocyte isolations. Monocytes were seeded in 6 well plates at concentration of 3 million/mL of RPMI1640 media with 10% FCS and antibiotic/antimycotic mixture and stimulated with LPS for 4 h. The supernatants were used to measure IL-1β, IL-18 and TNF using ELISA. Human peripheral blood was collected by the Health Apheresis Unit and the Clinical Core Laboratory, the National Institute on Aging-Intramural Research Program, under Human Subject Protocol #2003054 and Tissue Procurement Protocol #2003-071.

[5] = due to increased clearance; literature; cited from earlier work
[6] = molecular target: AIM2 inflammasome (Mus musculus, UniProt Q91VJ1); format: cell-based
[7] = test system: caspase-11; experiment: Non-canonical inflammasome pathway, caspase-11 immunoblot in LPS treated BMDMs; format: cell-based, mouse; details: BMDMs treated with LPS 4 h
[8] = molecular target: NLRP3 inflammasome (Mus musculus, UniProt Q8R4B8); experiment: IL-1β secretion from mouse neutrophils after NLRP3 activation (western blot); format: cell-based; design: endogenous in cells; host or cells: mouse bone marrow neutrophils (A15)
Method: Neutrophils from young (3 month) and aged (24 months) mice were stimulated with LPS, and the NLRP3 inflammasome was activated by treatment with ATP and C6 Ceramide. BHB was provided at the same time of ATP and ceramide treatment.
Adult and old neutrophils were analyzed for ketogenic and ketolytic enzyme expression. Gene expression was measured by RT-PCR (FIG. 14A). Expression was normalized to Gapdh expression and was represented as expression relative to adult gene expression. SCOT, HMGCL, and β-Actin protein expression were assessed in unstimulated adult and old neutrophils by Western blot (FIG. 14B). Dose response to BHB was measured by assaying IL-1β secretion in supernatants from adult neutrophils (FIG. 14C). Western blots were generated of IL-1β in supernatants from adult and old neutrophils stimulated with LPS+ATP or LPS+ceramide (FIG. 14D). In FIG. 14A, each dot represents a pooled sample of n=2 mice. In FIGS. 14B-14D, each blot is representative of at least two independent experiments. Each sample analyzed by Western blot is pooled from n=4-6 mice per experiment.
Adult neutrophils were stimulated with LPS+ATP+BHB to test the mechanism by which BHB blocks IL-1β secretion. LPS-primed neutrophils were stimulated with ATP in the presence of BHB or niacin (FIG. 15A). Supernatants were analyzed for IL-1β secretion by Western blot. Wildtype of mCAT neutrophils were stimulated with LPS+ATP+BHB (FIG. 15B). Supernatants were analyzed for IL-1β secretion by Western blot. Catalase and β-Actin expression were measured by Western blot in neutrophil cell lysates. LPS-primed neutrophils were stimulated with ATP+BHB in the presence of 3-MA or AOA as indicated (FIG. 15C). Supernatants were analyzed for IL-1β secretion by Western blot. The enantiomer S-BHB was tested in a dose response for the ability to inhibit inflammasome activation (FIG. 15D). Supernatants were analyzed for IL-1β secretion by Western blot. FCAS neutrophils were incubated with 4-OHT followed by LPS priming. […] Supernatants were analyzed for IL-1β secretion by Western blot. […]

Sequence of NLRP3 inflammasome (Q8R4B8 whole entry): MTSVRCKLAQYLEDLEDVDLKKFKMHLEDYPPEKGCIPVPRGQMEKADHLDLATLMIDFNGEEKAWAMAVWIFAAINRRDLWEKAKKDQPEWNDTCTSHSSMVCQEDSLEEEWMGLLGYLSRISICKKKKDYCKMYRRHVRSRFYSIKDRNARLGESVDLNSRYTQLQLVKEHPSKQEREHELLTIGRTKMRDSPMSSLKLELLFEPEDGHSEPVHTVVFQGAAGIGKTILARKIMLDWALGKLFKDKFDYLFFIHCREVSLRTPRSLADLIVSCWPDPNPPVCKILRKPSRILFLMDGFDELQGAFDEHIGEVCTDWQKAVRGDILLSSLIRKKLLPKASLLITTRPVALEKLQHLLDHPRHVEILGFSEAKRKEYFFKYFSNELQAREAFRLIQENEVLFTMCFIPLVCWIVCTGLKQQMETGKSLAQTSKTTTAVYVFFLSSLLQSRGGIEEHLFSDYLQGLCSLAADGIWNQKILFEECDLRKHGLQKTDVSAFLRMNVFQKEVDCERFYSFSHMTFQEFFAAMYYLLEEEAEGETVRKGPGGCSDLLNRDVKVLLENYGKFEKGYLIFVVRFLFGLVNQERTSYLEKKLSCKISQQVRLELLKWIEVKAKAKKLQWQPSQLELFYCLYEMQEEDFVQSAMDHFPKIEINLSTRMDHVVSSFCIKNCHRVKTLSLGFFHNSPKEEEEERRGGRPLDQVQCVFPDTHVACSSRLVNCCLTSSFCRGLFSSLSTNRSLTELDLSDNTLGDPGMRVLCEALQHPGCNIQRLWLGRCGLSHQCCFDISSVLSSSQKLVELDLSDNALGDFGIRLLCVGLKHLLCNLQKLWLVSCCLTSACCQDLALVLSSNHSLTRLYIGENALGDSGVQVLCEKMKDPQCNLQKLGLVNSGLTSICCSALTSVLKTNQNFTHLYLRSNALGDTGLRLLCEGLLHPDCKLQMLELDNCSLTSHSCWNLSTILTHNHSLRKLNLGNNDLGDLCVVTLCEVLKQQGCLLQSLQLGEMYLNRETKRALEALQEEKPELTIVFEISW
Sequence of NLRP3^L351P (Q8R4B8 whole entry L351P): as the sequence (Q8R4B8 whole entry) above, with L351P counted along it
Sequence of AIM2 inflammasome (Q91VJ1 whole entry, looked up): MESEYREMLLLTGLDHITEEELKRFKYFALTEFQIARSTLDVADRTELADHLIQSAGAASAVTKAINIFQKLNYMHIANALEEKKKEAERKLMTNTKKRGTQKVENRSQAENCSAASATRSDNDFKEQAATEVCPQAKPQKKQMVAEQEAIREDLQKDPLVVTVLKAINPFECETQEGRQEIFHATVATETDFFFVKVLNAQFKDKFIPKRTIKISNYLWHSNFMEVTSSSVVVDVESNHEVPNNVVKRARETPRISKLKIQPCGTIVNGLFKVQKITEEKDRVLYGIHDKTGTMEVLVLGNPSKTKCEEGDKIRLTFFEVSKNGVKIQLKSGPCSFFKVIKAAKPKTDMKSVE
T1 sequence (Q3UP24 whole entry): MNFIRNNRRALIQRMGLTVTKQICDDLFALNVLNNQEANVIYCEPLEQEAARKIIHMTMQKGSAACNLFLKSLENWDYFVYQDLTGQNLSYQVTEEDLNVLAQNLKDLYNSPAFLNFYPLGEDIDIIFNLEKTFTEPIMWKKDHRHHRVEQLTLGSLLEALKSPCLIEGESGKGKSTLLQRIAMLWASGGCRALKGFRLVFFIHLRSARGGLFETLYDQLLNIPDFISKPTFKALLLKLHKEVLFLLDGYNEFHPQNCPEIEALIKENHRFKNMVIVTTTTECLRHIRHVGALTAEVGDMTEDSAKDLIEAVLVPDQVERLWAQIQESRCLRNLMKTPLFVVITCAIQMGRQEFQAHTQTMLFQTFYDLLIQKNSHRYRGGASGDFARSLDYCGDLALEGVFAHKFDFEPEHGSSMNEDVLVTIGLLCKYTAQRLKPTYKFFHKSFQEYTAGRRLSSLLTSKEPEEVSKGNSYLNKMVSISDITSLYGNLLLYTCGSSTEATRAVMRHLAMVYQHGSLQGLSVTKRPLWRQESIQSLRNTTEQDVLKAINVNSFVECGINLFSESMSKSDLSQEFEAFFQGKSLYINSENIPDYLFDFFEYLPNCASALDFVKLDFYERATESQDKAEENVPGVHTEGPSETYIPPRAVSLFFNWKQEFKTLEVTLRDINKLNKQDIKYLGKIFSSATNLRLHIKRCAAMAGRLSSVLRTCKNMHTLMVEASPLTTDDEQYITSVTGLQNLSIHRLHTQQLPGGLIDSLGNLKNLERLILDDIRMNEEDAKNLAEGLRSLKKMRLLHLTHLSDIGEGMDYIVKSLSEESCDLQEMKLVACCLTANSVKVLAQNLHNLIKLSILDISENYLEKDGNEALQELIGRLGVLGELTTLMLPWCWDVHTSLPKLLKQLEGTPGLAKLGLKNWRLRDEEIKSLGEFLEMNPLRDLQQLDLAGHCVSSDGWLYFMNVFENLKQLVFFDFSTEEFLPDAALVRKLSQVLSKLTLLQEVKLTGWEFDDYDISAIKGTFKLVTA

Structure (SMILES): CC(O)CC(=O)O (stereo not drawn) [BHB, β-hydroxybutyrate]
- NLRC4 mediated caspase-1 cleavage [1]: did not inhibit
- ASC oligomerization in macrophages of FCAS mice [2]: directly prevented
- ASC oligomerization in response to NLRP3 ligand ATP ([3]; BMDMs primed with LPS (4 h), ATP and BHB 1 h, DSS cross-linked ASC): prevented
- ASC speck formation ([3]; BMDMs, LPS+ATP, BHB (10 mM)): prevented
- IL-1β secretion [4]: dose dependently inhibited
- IL-18 secretion [4]: dose dependently inhibited
- TNFα production [4]: without significantly affecting
- serum concentration after administration [5]: insufficient to achieve sustained high serum concentration
- AIM2 inflammasome induced IL-1β activation [6]: did not inhibit
- caspase-11 activation [7]: neither butyrate nor BHB blocks
- NLRP3 inflammasome activation in neutrophils ([8]; adult and old mouse neutrophils, LPS+ATP or LPS+ceramide, IL-1β in supernatants): inhibit
- mechanism of inhibitory effects in neutrophils ([8]; adult neutrophils stimulated with LPS+ATP+BHB): physically blocking inflammasome assembly
- IL-1β production after NLRP3 activation in neutrophils ([8]; neutrophils from young (3 month) and aged (24 month) mice, LPS, ATP and C6 Ceramide, 10 mM BHB): blocks
